Measured values from PubChem BioAssay (NCI).
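Following 48 hours of exposure in 96-well plates, responses at five concentrations were used to interpolate endpoints linearly. TGI: concentration producing complete growth inhibition.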

How the values were obtained:
Experiment in all cases: NCI tumour cell line growth inhibition, 48 h
MDA-MB-435 = test system: MDA-MB-435
OVCAR-8 ovarian = test system: OVCAR-8 ovarian
UACC-62 melanoma = test system: UACC-62 melanoma
MOLT-4 leukemia = test system: MOLT-4 leukemia
RXF 393 renal = test system: RXF 393 renal
SN12C renal = test system: SN12C renal
IGROV1 ovarian = test system: IGROV1 ovarian
OVCAR-4 ovarian = test system: OVCAR-4 ovarian
T-47D breast = test system: T-47D breast
OVCAR-5 ovarian = test system: OVCAR-5 ovarian
CCRF-CEM leukemia = test system: CCRF-CEM leukemia
SK-MEL-5 melanoma = test system: SK-MEL-5 melanoma
SK-MEL-28 melanoma = test system: SK-MEL-28 melanoma
MDA-N = test system: MDA-N
SF-295 CNS = test system: SF-295 CNS
BT-549 breast = test system: BT-549 breast
SF-539 CNS = test system: SF-539 CNS
UACC-257 melanoma = test system: UACC-257 melanoma
SK-OV-3 ovarian = test system: SK-OV-3 ovarian
A498 renal = test system: A498 renal
SR leukemia = test system: SR leukemia
SK-MEL-2 melanoma = test system: SK-MEL-2 melanoma
M14 melanoma = test system: M14 melanoma
NCI/ADR-RES ovarian = test system: NCI/ADR-RES ovarian
HL-60(TB) leukemia = test system: HL-60(TB) leukemia
A549 NSCLC = test system: A549 NSCLC
HT29 colon = test system: HT29 colon
HS 578T breast = test system: HS 578T breast
MDA-MB-231 breast = test system: MDA-MB-231 breast
RPMI-8226 leukemia = test system: RPMI-8226 leukemia
NCI-H460 lung = test system: NCI-H460 lung
NCI-H23 lung = test system: NCI-H23 lung
MCF7 breast = test system: MCF7 breast
SW-620 colon = test system: SW-620 colon
K-562 leukemia = test system: K-562 leukemia
PC-3 prostate = test system: PC-3 prostate
LOX IMVI melanoma = test system: LOX IMVI melanoma
DU-145 prostate = test system: DU-145 prostate
ACHN renal = test system: ACHN renal
EKVX NSCLC = test system: EKVX NSCLC
U251 CNS = test system: U251 CNS
SNB-19 CNS = test system: SNB-19 CNS
SF-268 CNS = test system: SF-268 CNS
HOP-92 NSCLC = test system: HOP-92 NSCLC
HOP-62 NSCLC = test system: HOP-62 NSCLC
CAKI-1 renal = test system: CAKI-1 renal
HCT-15 colon = test system: HCT-15 colon
786-0 renal = test system: 786-0 renal
OVCAR-3 ovarian = test system: OVCAR-3 ovarian
TK-10 renal = test system: TK-10 renal
HCT-116 colon = test system: HCT-116 colon
NCI-H522 lung = test system: NCI-H522 lung
KM12 colon = test system: KM12 colon
UO-31 renal = test system: UO-31 renal
MALME-3M melanoma = test system: MALME-3M melanoma
COLO 205 colon = test system: COLO 205 colon
HCC-2998 colon = test system: HCC-2998 colon
SNB-75 CNS = test system: SNB-75 CNS
NCI-H226 lung = test system: NCI-H226 lung

With COC(=O)c1cc(C)n(CN(Cn2nc(C(=O)OC)cc2C)c2ccccc2)n1 the TGI (MDA-MB-435) was over 100 µM, the TGI (OVCAR-8 ovarian) was 47.9 µM and the TGI (UACC-62 melanoma) was 88 µM. It also gave a TGI (MOLT-4 leukemia) of 33.4 µM, a TGI (RXF 393 renal) of 44.4 µM and a TGI (SN12C renal) of over 100 µM. For the same compound, the TGI (IGROV1 ovarian) was over 100 µM, the TGI (OVCAR-4 ovarian) was over 100 µM and the TGI (T-47D breast) was 88.3 µM. The TGI (OVCAR-5 ovarian) was over 100 µM, the TGI (CCRF-CEM leukemia) was 54.2 µM and the TGI (SK-MEL-5 melanoma) was over 100 µM. It also gave a TGI (SK-MEL-28 melanoma) of over 100 µM, a TGI (MDA-N) of over 100 µM and a TGI (SF-295 CNS) of over 100 µM. It also gave a TGI (BT-549 breast) of over 100 µM, a TGI (SF-539 CNS) of 36.3 µM and a TGI (UACC-257 melanoma) of over 100 µM. It also gave a TGI (SK-OV-3 ovarian) of over 100 µM, a TGI (A498 renal) of over 100 µM and a TGI (SR leukemia) of 25.5 µM. It also gave a TGI (SK-MEL-2 melanoma) of over 100 µM, a TGI (M14 melanoma) of over 100 µM and a TGI (NCI/ADR-RES ovarian) of 94.7 µM. It also gave a TGI (HL-60(TB) leukemia) of 47.5 µM, a TGI (A549 NSCLC) of over 100 µM and a TGI (HT29 colon) of 36 µM. For the same compound, the TGI (HS 578T breast) was over 100 µM, the TGI (MDA-MB-231 breast) was over 100 µM and the TGI (RPMI-8226 leukemia) was 44.6 µM. The TGI (NCI-H460 lung) was over 100 µM, the TGI (NCI-H23 lung) was 69.6 µM and the TGI (MCF7 breast) was 93.5 µM. It also gave a TGI (SW-620 colon) of over 100 µM, a TGI (K-562 leukemia) of 60.4 µM and a TGI (PC-3 prostate) of over 100 µM. It also gave a TGI (LOX IMVI melanoma) of 42.3 µM, a TGI (DU-145 prostate) of over 100 µM and a TGI (ACHN renal) of 44.6 µM. The TGI (EKVX NSCLC) was over 100 µM, the TGI (U251 CNS) was over 100 µM and the TGI (SNB-19 CNS) was over 100 µM. For the same compound, the TGI (SF-268 CNS) was over 100 µM, the TGI (HOP-92 NSCLC) was over 100 µM and the TGI (HOP-62 NSCLC) was over 100 µM. It also gave a TGI (CAKI-1 renal) of over 100 µM, a TGI (HCT-15 colon) of 47.2 µM and a TGI (786-0 renal) of 61 µM. The TGI (OVCAR-3 ovarian) was over 100 µM, the TGI (TK-10 renal) was over 100 µM and the TGI (HCT-116 colon) was 40.9 µM. The TGI (NCI-H522 lung) was over 100 µM, the TGI (KM12 colon) was over 100 µM and the TGI (UO-31 renal) was 55.2 µM. The TGI (MALME-3M melanoma) was over 100 µM and the TGI (COLO 205 colon) was 32 µM.

NC(N)=N/N=C\c1ccc(C2CCNCC2)cc1 gave a TGI (MDA-MB-435) of over 100 µM, a TGI (OVCAR-8 ovarian) of over 100 µM and a TGI (UACC-62 melanoma) of over 100 µM. For the same compound, the TGI (MOLT-4 leukemia) was over 100 µM, the TGI (RXF 393 renal) was over 100 µM and the TGI (SN12C renal) was over 100 µM. It also gave a TGI (IGROV1 ovarian) of over 100 µM, a TGI (OVCAR-4 ovarian) of over 100 µM and a TGI (HCC-2998 colon) of over 100 µM. The TGI (T-47D breast) was over 100 µM, the TGI (OVCAR-5 ovarian) was over 100 µM and the TGI (CCRF-CEM leukemia) was over 100 µM. For the same compound, the TGI (SK-MEL-5 melanoma) was over 100 µM, the TGI (SK-MEL-28 melanoma) was over 100 µM and the TGI (MDA-N) was over 100 µM. The TGI (SF-295 CNS) was over 100 µM, the TGI (BT-549 breast) was over 100 µM and the TGI (SF-539 CNS) was over 100 µM. For the same compound, the TGI (UACC-257 melanoma) was over 100 µM, the TGI (SK-OV-3 ovarian) was over 100 µM and the TGI (A498 renal) was over 100 µM. The TGI (SR leukemia) was over 100 µM, the TGI (SK-MEL-2 melanoma) was over 100 µM and the TGI (M14 melanoma) was over 100 µM. It also gave a TGI (NCI/ADR-RES ovarian) of over 100 µM, a TGI (A549 NSCLC) of over 100 µM and a TGI (HT29 colon) of over 100 µM. It also gave a TGI (HS 578T breast) of over 100 µM, a TGI (MDA-MB-231 breast) of over 100 µM and a TGI (RPMI-8226 leukemia) of over 100 µM. For the same compound, the TGI (NCI-H460 lung) was over 100 µM, the TGI (NCI-H23 lung) was over 100 µM and the TGI (MCF7 breast) was over 100 µM. The TGI (SW-620 colon) was over 100 µM, the TGI (K-562 leukemia) was over 100 µM and the TGI (PC-3 prostate) was over 100 µM. The TGI (LOX IMVI melanoma) was over 100 µM, the TGI (DU-145 prostate) was over 100 µM and the TGI (ACHN renal) was over 100 µM. For the same compound, the TGI (EKVX NSCLC) was over 100 µM, the TGI (U251 CNS) was over 100 µM and the TGI (SNB-19 CNS) was over 100 µM. The TGI (SF-268 CNS) was over 100 µM, the TGI (HOP-92 NSCLC) was over 100 µM and the TGI (HOP-62 NSCLC) was over 100 µM. For the same compound, the TGI (CAKI-1 renal) was over 100 µM, the TGI (SNB-75 CNS) was over 100 µM and the TGI (HCT-15 colon) was over 100 µM. It also gave a TGI (786-0 renal) of over 100 µM, a TGI (OVCAR-3 ovarian) of over 100 µM and a TGI (TK-10 renal) of over 100 µM. It also gave a TGI (HCT-116 colon) of over 100 µM, a TGI (NCI-H522 lung) of over 100 µM and a TGI (KM12 colon) of over 100 µM. The TGI (UO-31 renal) was over 100 µM, the TGI (MALME-3M melanoma) was over 100 µM and the TGI (COLO 205 colon) was over 100 µM. It also gave a TGI (NCI-H226 lung) of over 100 µM.
